From patent US8003665B2, “Salts and polymorphs of a potent antidiabetic compound” (Amgen Inc., priority 2003, dated 2011)

Experiment: Moisture sorption/desorption (hygroscopicity)
Type: physicochemical
Experimental: Moisture sorption/desorption data were collected on a VTI SGA-100 Vapor Sorption Analyzer. Sorption and desorption data were collected over a range of 5% to 95% relative humidity (“RH”) at 10% RH intervals under nitrogen purge. Samples were not dried prior to analysis. Equilibrium criteria used for analysis were less than 0.0100% weight change in 5 minutes, with a maximum equilibration time of 3 hours if the weight criterion was not met. Data were not corrected for the initial moisture content of the samples. NaCl and PVP were used as calibration standards. This example illustrates the differential scanning calorimetry (DSC) and hygroscopicity analysis of Form I prepared according to Example 6.

weight loss (moisture desorption, from 95% to 25% relative humidity): 0.6% | weight gain (moisture sorption, from 25% to 95% relative humidity): 0.6%
SMILES: O=S(=O)(Nc1cc(Cl)c(Oc2cnc3ccccc3c2)c(Cl)c1)c1ccc(Cl)cc1Cl.O=S(=O)(O)c1ccccc1 [Form I, 2,4-Dichloro-N-[3,5-dichloro-4-(quinolin-3-yloxy)-phenyl]-benzenesulfonamide benzenesulfonate salt]
